In patent US20230405005A1, “TREATMENT OF GAIT DYSFUNCTION IN NEURODEGENERATIVE DISEASE” (EIP Pharma, Inc., priority 2020, published 2023):

Legend:
human subjects [1] = test: Timed Up and Go (TUG) test, 16-week placebo-controlled clinical study; format: in vivo; conditions: 8 and 16 weeks
Method: FIG. 1A illustrates the Timed Up and Go (TUG) test, wherein the time it takes a subject to stand up from a chair, walk three meters, turn around and return to the chair is measured.
(§1) A double-blind placebo-controlled, 16-week, treatment with neflamapimod was conducted in parallel groups at 22 centers in the US and 2 centers in the Netherlands.
(§2) Inclusion criteria included Mild-to-moderate (MMSE 15-28) probable Dementia with Lewy Bodies by consensus criteria (McKeith et al, Neurology, 2017; 89:88-100), a positive reading of DaTscan™, and have to have been currently receiving cholinesterase inhibitor therapy (>3 months and stable dose >6 weeks). If DaTscan™ was negative, subjects could also be enrolled with history of polysomnography-confirmed REM sleep disorder (6 study participants so enrolled). The study was randomized 1:1 to 40 mg neflamapimod or matching-placebo capsules. Dosing regimen was based on weight: subjects weighing <80 kg received capsules twice-daily (BID) and those weighing ≥80 kg received capsules three-times-a-day (TID).
Secondary clinical endpoints included the following. (a) International Shopping List Test (ISLT); (b) Timed Up and Go Test (TUG), Ten item Neuropsychiatric Inventory (NPI-10); and (c) Clinical Dementia Rating scale Sum-of-Boxes (CDR-SB). […]

human subjects [2] = test: Personal Care Domain of Clinical Dementia Rating Scale Sum of Boxes (CDR-SB); format: in vivo; conditions: neflamapimod vs placebo over 16 weeks; p=0.02 (MMRM), FIG. 4
Method: as §1, §2
Secondary clinical endpoints included the following. (a) International Shopping List Test (ISLT); (b) Timed Up and Go Test (TUG), Ten item Neuropsychiatric Inventory (NPI-10); and (c) Clinical Dementia Rating scale Sum-of-Boxes (CDR-SB). The TUG test is useful to measure risk of fall in patients with or at risk of suffering from Parkinson's disease (see e.g., Arch Phys Med Rehabil. 2013 July; 94(7): 1300-1305).

human subjects [3] = test: EEG beta functional connectivity, corrected Amplitude Envelope Correlation (AECc); format: in vivo
Method: “40 mg” refers to combined neflamapimod patients, including 40 mg BID and 40 mg TID.
These regions, in particular the frontal cortex, receive cholinergic input, including projections from the nucleus basalis of Meynert. Dysfunction of the cholinergic system leads to impaired cortical functional connectivity, which is disruptive to the performance of complex motor functions such as gait. The ability of neflamapimod to improve functional connectivity, as measured by EEG in the experiments described herein, provides further support for the efficacy of neflamapimod to alleviate gait dysfunction.
Functional connectivity analysis, specifically corrected Amplitude Envelope Correlation (AECc), measures interregional communication or so-called ‘functional connectivity’ between different brain regions. In the functional connectivity analysis, a positive neflamapimod treatment effect on AECc in the beta band (13-30 Hz) was identified. Mean AECc beta was increased with neflamapimod TID versus all placebo (p=0.033) and versus placebo TID (p=0.01).

hippocampal neurons = conditions: hippocampal cell culture; cited from earlier work
CKIδ = CKIδ (Homo sapiens, UniProt P48730); conditions: cited from earlier work
Chain of CKIδ (P48730 whole entry, species assumed): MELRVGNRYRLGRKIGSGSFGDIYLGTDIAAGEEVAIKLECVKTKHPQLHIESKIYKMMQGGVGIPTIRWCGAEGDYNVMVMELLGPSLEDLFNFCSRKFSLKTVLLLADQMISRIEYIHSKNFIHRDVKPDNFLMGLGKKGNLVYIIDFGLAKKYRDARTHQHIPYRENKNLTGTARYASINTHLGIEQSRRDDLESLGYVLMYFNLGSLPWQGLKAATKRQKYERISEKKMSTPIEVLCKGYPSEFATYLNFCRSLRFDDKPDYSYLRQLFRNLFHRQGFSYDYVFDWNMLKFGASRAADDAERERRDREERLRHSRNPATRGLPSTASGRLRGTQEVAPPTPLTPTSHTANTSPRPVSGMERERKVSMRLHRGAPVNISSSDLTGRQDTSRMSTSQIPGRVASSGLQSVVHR

CKIε = CKIε (Homo sapiens, UniProt P49674); conditions: cited from earlier work
Chain of CKIε (P49674 whole entry, species assumed): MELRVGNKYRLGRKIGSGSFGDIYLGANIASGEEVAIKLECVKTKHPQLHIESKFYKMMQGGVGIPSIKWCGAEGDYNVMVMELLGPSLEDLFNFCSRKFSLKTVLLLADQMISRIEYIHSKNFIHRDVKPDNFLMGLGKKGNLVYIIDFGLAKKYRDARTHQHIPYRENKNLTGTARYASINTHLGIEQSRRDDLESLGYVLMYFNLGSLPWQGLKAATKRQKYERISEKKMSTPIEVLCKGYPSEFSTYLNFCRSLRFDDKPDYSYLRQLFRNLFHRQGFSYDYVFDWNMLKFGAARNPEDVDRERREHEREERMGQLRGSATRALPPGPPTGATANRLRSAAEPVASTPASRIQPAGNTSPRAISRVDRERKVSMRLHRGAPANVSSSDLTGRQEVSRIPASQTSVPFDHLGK

O=c1ncn2nc(Sc3ccc(F)cc3F)ccc2c1-c1c(Cl)cccc1Cl [neflamapimod, 5-(2,6-dichlorophenyl)-2-(2,4-difluorophenylthio)-6H-pyrimido[1,6-b]pyridazin-6-one]
TUG test outcome (human subjects [1]; all neflamapimod (40 mg BID and 40 mg TID) vs all placebo, p=0.044 (MMRM), FIG. 2): significantly improve outcome
TUG test outcome (human subjects [1]; neflamapimod 40 mg TID vs placebo TID, p=0.024 (MMRM), FIG. 3): significantly improve outcome
Personal care domain of the CDR sum of boxes (human subjects [2]): significant positive outcome
AECc in each of the other bands (human subjects [3]; EEG bands other than beta): stable or slightly improved with no treatment group differences
Mean AECc beta (13-30 Hz) functional connectivity (human subjects [3]; neflamapimod TID versus all placebo (p=0.033) and versus placebo TID (p=0.01)): increased
AECc beta by brain region (human subjects [3]; placebo TID versus neflamapimod TID, frontal p=0.009, temporal p=0.036, parietal p=0.036): most prominent in the frontal region
Effect against amyloid β-derived diffusible ligand (ADDL) induced synaptotoxicity (hippocampal neurons): positive effects

COc1nccc(-c2c(-c3ccc(F)cc3)ncn2C2CCC(O)CC2)n1 (stereo not shown) [SB239063]
Effect against amyloid β-derived diffusible ligand (ADDL) induced synaptotoxicity (hippocampal neurons): ineffective
Inhibition of casein kinase isoform CKIδ (CKIδ): inhibit
Inhibition of casein kinase isoform CKIε (CKIε): inhibit
